# Assay results as given in patent publication US9718821B2, “Pyridopyrimidinone inhibitors of kinases” (AbbVie Inc., priority 2012, dated 2017).
# Molecular target: T1, GST-tagged-Wee1 kinase (Homo sapiens, UniProt P30291)
# T1 construct: purchased Carnabio 05-177
# Assay: Wee1 time-resolved fluorescence equilibrium binding assay (displacement of Oregon Green-labeled ATP-competitive kinase probe)
# Conditions: enzyme binding data; GST-tagged-Wee1 kinase 2 nM, fluorescent probe 300 nM, inhibitor 0.003 to 10 micromolar, 1 hour incubation; read-out: Wee-1 binding (Ki nM)
# Experimental: Wee1 kinase was assayed using a time-resolved fluorescence equilibrium binding assay monitoring displacement of a rapidly reversible Oregon Green-labeled ATP-competitive kinase probe (N-(2-(2-(2-(4-(4-(5-chloro-4-(2-(1-hydroxycyclobutyl)thiazol-5-yl)-1H-pyrrolo[2,3-b]pyridin-2-yl)phenyl)piperazin-1-yl)ethoxy)ethoxy)ethyl)-2′,7′-difluoro-3′,6′-dihydroxy-3-oxo-3H-spiro[isobenzofuran-1,9′-xanthene]-5-carboxamide) by competitive Wee1 inhibitors.
# Table 1 depicts enzyme binding data (Ki)for exemplary compounds.
# T1 sequence (P30291 whole entry): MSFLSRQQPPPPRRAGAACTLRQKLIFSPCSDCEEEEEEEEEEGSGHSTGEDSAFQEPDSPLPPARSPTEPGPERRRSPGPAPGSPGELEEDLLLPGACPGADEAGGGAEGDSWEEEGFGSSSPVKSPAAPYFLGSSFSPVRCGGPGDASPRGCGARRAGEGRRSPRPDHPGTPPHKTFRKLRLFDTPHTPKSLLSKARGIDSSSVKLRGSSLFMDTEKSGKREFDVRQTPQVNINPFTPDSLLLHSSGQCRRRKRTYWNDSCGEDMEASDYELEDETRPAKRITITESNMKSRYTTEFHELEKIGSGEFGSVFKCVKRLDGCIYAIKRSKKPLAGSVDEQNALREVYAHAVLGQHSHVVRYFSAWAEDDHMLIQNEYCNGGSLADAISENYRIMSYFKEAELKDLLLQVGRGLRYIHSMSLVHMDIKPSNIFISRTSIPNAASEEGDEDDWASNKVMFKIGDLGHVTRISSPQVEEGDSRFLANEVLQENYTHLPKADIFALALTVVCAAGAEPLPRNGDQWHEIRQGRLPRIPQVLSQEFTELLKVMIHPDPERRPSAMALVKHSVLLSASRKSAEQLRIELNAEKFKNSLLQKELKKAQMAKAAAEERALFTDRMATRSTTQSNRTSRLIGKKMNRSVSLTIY
row,Compound,Ki
1,"CNC(=O)CS(=O)(=O)c1ccc(Nc2ncc3c(=O)n(-c4c(Cl)cccc4Cl)cc(C)c3n2)cc1 [Example 120, 2-[(4-{[6-(2,6-dichlorophenyl)-8-methyl-5-oxo-5,6-dihydropyrido[4,3-d]pyrimidin-2-yl]amino}phenyl)sulfonyl]-N-methylacetamide]",0.3 nM
2,"Cc1cn(-c2ccccc2Cl)c(=O)c2cnc(Nc3ccc4c(c3)CNCC4)nc12 [Example 98, 6-(2-chlorophenyl)-8-methyl-2-(1,2,3,4-tetrahydroisoquinolin-7-ylamino)pyrido[4,3-d]pyrimidin-5(6H)-one]",0.5 nM
3,"CN1CCC(c2ccc(Nc3ncc4c(=O)n(-c5c(Cl)cccc5Cl)cc(C(F)F)c4n3)cc2)CC1 [Example 82, 6-(2,6-dichlorophenyl)-8-(difluoromethyl)-2-{[4-(1-methylpiperidin-4-yl)phenyl]amino}pyrido[4,3-d]pyrimidin-5 (6H)-one]",0.1 nM
4,"Cc1cccc(F)c1-n1cc(C)c2nc(Nc3ccc(N4CCC(N(C)C)CC4)cc3)ncc2c1=O [Example 104, 2-({4-[4-(dimethylamino)piperidin-1-yl]phenyl}amino)-6-(2-fluoro-6-methylphenyl)-8-methylpyrido[4,3-d]pyrimidin-5(6H)-one]",0.9 nM
5,"Cc1cn(-c2c(Cl)cccc2Cl)c(=O)c2cnc(Nc3ccc(NC4CCN(C)CC4)cc3)nc12 [Example 116, 6-(2,6-dichlorophenyl)-8-methyl-2-({4-[(1-methylpiperidin-4-yl)amino]phenyl}amino)pyrido[4,3-d]pyrimidin-5 (6H)-one]",0.1 nM
6,"Cc1cn(-c2c(Cl)cccc2Cl)c(=O)c2cnc(Nc3ccc(N[C@H]4CC[C@H](N(C)C)CC4)cc3)nc12 [Example 132, 6-(2,6-dichlorophenyl)-2-[(4-{[trans-4-(dimethylamino)cyclohexyl]amino}phenyl)amino]-8-methylpyrido[4,3-d]pyrimidin-5(6H)-one]",0.4 nM
7,"C=Cc1cn(-c2c(Cl)cccc2Cl)c(=O)c2cnc(Nc3ccc4c(c3)CNCC43CC3)nc12 [Example 51, 6-(2,6-dichlorophenyl)-2-(2′,3′-dihydro-1′H-spiro[cyclopropane-1,4′-isoquinolin]-7′-ylamino)-8-ethenylpyrido[4,3-d]pyrimidin-5(6H)-one]",0.4 nM
8,"Cc1cn(-c2cccc3ccccc23)c(=O)c2cnc(Nc3ccc(N4CCC(N(C)C)CC4)cc3)nc12 [Example 101, 2-({4-[4-(dimethylamino)piperidin-1-yl]phenyl}amino)-8-methyl-6-(naphthalen-1-yl)pyrido[4,3-d]pyrimidin-5(6H)-one]",2.8 nM
9,"Cc1cn(-c2c(F)cccc2Cl)c(=O)c2cnc(Nc3ccc(N4CCN(C)CC4)cc3)nc12 [Example 66, 6-(2-chloro-6-fluorophenyl)-8-methyl-2-{[4-(4-methylpiperazin-1-yl)phenyl]amino}pyrido[4,3-d]pyrimidin-5(6H)-one]",0.9 nM
10,"CN(C)C1Cc2ccc(Nc3ncc4c(=O)n(-c5c(Cl)cccc5Cl)cc(CO)c4n3)cc2C1 (stereo not drawn) [Example 54, 6-(2,6-dichlorophenyl)-2-{[2-(dimethylamino)-2,3-dihydro-1H-inden-5-yl]amino}-8-(hydroxymethyl)pyrido[4,3-d]pyrimidin-5(6H)-one]",0.4 nM
11,"Cc1cn(-c2cc(Cl)ccc2Cl)c(=O)c2cnc(Nc3ccc4c(c3)CNCC4)nc12 [Example 102, 6-(2,5-dichlorophenyl)-8-methyl-2-(1,2,3,4-tetrahydroisoquinolin-7-ylamino)pyrido[4,3-d]pyrimidin-5(6H)-one]",17.8 nM
12,"CNC(=O)CSc1ccc(Nc2ncc3c(=O)n(-c4c(Cl)cccc4Cl)cc(C)c3n2)cc1 [Example 114, 2-[(4-{[6-(2,6-dichlorophenyl)-8-methyl-5-oxo-5,6-dihydropyrido[4,3-d]pyrimidin-2-yl]amino}phenyl)sulfanyl]-N-methylacetamide]",0.8 nM

# Other lines, results leading:
row,Ki,Compound
1,0.4 nM,"O=c1c2cnc(Nc3ccc4c(c3)CCNC4)nc2c(-c2ncc[nH]2)cn1-c1c(Cl)cccc1Cl [Example 81, 6-(2,6-dichlorophenyl)-8-(1H-imidazol-2-yl)-2-(1,2,3,4-tetrahydroisoquinolin-6-ylamino)pyrido[4,3-d]pyrimidin-5(6H)-one]"
2,0.568 nM,"CN1Cc2cc(Nc3ncc4c(=O)n(-c5c(Cl)cccc5Cl)cc(C(F)F)c4n3)ccc2C2(CC2)C1 [Example 94, 6-(2,6-dichlorophenyl)-8-(difluoromethyl)-2-[(2′-methyl-2′,3′-dihydro-1′H-spiro[cyclopropane-1,4′-isoquinolin]-7′-yl)amino]pyrido[4,3-d]pyrimidin-5(6H)-one]"
3,0.6 nM,"Cc1cn(-c2c(F)cccc2Cl)c(=O)c2cnc(Nc3ccc4c(c3)CNCC43CC3)nc12 [Example 74, 6-(2-chloro-6-fluorophenyl)-2-(2′,3′-dihydro-1′H-spiro[cyclopropane-1,4′-isoquinolin]-7′-ylamino)-8-methylpyrido[4,3-d]pyrimidin-5(6H)-one]"
4,0.5 nM,"6-(2,6-dichlorophenyl)-8-methyl-2-(1,2,3,4-tetrahydroisoquinolin-6-ylamino)pyrido[4,3-d]pyrimidin-5(6H)-one [Example 76]"
5,0.328 nM,"CN(C)C1CCN(c2ccc(Nc3ncc4c(=O)n(-c5c(Cl)cccc5Cl)cc(C(F)F)c4n3)cc2)CC1 [Example 84, 6-(2,6-dichlorophenyl)-8-(difluoromethyl)-2-({4-[4-(dimethylamino)piperidin-1-yl]phenyl}amino)pyrido[4,3-d]pyrimidin-5(6H)-one]"
6,0.2 nM,"Cc1cn(-c2c(O)cccc2Cl)c(=O)c2cnc(Nc3ccc4c(c3)CNC4(C)C)nc12 [Example 136, 6-(2-chloro-6-hydroxyphenyl)-2-[(1,1-dimethyl-2,3-dihydro-1H-isoindol-5-yl)amino]-8-methylpyrido[4,3-d]pyrimidin-5(6H)-one]"
7,0.5 nM,"C=Cc1cn(-c2c(Cl)cccc2Cl)c(=O)c2cnc(Nc3ccc(N4CCC(N(C)C)CC4)cc3)nc12 [Example 50, 6-(2,6-dichlorophenyl)-2-({4-[4-(dimethylamino)piperidin-1-yl]phenyl}amino)-8-ethenylpyrido[4,3-d]pyrimidin-5(6H)-one]"
8,0.2 nM,"COC(=O)c1cc(Nc2ncc3c(=O)n(-c4c(Cl)cccc4Cl)cc(C)c3n2)ccc1N1CCN(C)CC1 [Example 129, methyl 5-{[6-(2,6-dichlorophenyl)-8-methyl-5-oxo-5,6-dihydropyrido[4,3-d]pyrimidin-2-yl]amino}-2-(4-methylpiperazin-1-yl)benzoate]"
9,0.5 nM,"C=Cc1cn(-c2c(F)cccc2Cl)c(=O)c2cnc(Nc3ccc4c(c3)CC(N(C)C)C4)nc12 (stereo not drawn) [Example 64, 6-(2-chloro-6-fluorophenyl)-2-{[2-(dimethylamino)-2,3-dihydro-1H-inden-5-yl]amino}-8-ethenylpyrido[4,3-d]pyrimidin-5(6H)-one]"
10,0.1 nM,"O=c1c2cnc(Nc3ccc4c(c3)CNCC43CC3)nc2c(CO)cn1-c1c(Cl)cccc1Cl [Example 57, 6-(2,6-dichlorophenyl)-2-(2′,3′-dihydro-1′H-spiro[cyclopropane-1,4′-isoquinolin]-7′-ylamino)-8-(hydroxymethyl)pyrido[4,3-d]pyrimidin-5(6H)-one]"
11,1 nM,"Cc1cn(-c2c(Cl)cccc2Cl)c(=O)c2cnc(Nc3ccc4c(c3)CN(CCN(C)C)C4)nc12 [Example 141, 6-(2,6-dichlorophenyl)-2-({2-[2-(dimethylamino)ethyl]-2,3-dihydro-1H-isoindol-5-yl}amino)-8-methylpyrido[4,3-d]pyrimidin-5(6H)-one]"
12,0.3 nM,"C=Cc1cn(-c2c(F)cccc2Cl)c(=O)c2cnc(Nc3ccc(N4CCN(C)CC4)cc3)nc12 [Example 62, 6-(2-chloro-6-fluorophenyl)-8-ethenyl-2-{[4-(4-methylpiperazin-1-yl)phenyl]amino}pyrido[4,3-d]pyrimidin-5(6H)-one]"
13,0.2 nM,"CN(C)C1Cc2ccc(Nc3ncc4c(=O)n(-c5c(Cl)cccc5Cl)cc(C(F)F)c4n3)cc2C1 (stereo not drawn) [Example 83, 6-(2,6-dichlorophenyl)-8-(difluoromethyl)-2-{[2-(dimethylamino)-2,3-dihydro-1H-inden-5-yl]amino}pyrido[4,3-d]pyrimidin-5(6H)-one]"
14,5.7 nM,"Cc1cn(-c2c(Cl)cccc2Cl)c(=O)c2nnc(Nc3ccc4c(c3)CN(C)CC43CC3)nc12 [Example 135, 7-(2,6-dichlorophenyl)-5-methyl-3-[(2′-methyl-2′,3′-dihydro-1′H-spiro[cyclopropane-1,4′-isoquinolin]-7′-yl)amino]pyrido[4,3-e][1,2,4]triazin-8(7H)-one]"
15,0.2 nM,"Cc1cn(-c2c(Cl)cccc2Cl)c(=O)c2cnc(Nc3ccc(N4CCN(CCN(C)C)CC4)cc3)nc12 [Example 138, 6-(2,6-dichlorophenyl)-2-[(4-{4-[2-(dimethylamino)ethyl]piperazin-1-yl}phenyl)amino]-8-methylpyrido[4,3-d]pyrimidin-5(6H)-one]"
16,0.6 nM,"CN(C)C1CCN(c2ccc(Nc3ncc4c(=O)n(-c5c(Cl)cccc5Cl)cc(CO)c4n3)cc2)CC1 [Example 55, 6-(2,6-dichlorophenyl)-2-({4-[4-(dimethylamino)piperidin-1-yl]phenyl}amino)-8-(hydroxymethyl)pyrido[4,3-d]pyrimidin-5(6H)-one]"
17,4.3 nM,"Cc1cn(-c2cccc3ccccc23)c(=O)c2cnc(Nc3ccc4c(c3)CNCC4)nc12 [Example 100, 8-methyl-6-(naphthalen-1-yl)-2-(1,2,3,4-tetrahydroisoquinolin-7-ylamino)pyrido[4,3-d]pyrimidin-5(6H)-one]"
18,1.6 nM,"Cc1nn(C)c(C)c1-n1cc(C)c2nc(Nc3ccc4c(c3)CNCC4)ncc2c1=O [Example 119, 8-methyl-2-(1,2,3,4-tetrahydroisoquinolin-7-ylamino)-6-(1,3,5-trimethyl-1H-pyrazol-4-yl)pyrido[4,3-d]pyrimidin-5(6H)-one]"
